In experiment [1] the target is T1, CD73 (Homo sapiens, UniProt P21589).
T1 sequence (P21589 27-549): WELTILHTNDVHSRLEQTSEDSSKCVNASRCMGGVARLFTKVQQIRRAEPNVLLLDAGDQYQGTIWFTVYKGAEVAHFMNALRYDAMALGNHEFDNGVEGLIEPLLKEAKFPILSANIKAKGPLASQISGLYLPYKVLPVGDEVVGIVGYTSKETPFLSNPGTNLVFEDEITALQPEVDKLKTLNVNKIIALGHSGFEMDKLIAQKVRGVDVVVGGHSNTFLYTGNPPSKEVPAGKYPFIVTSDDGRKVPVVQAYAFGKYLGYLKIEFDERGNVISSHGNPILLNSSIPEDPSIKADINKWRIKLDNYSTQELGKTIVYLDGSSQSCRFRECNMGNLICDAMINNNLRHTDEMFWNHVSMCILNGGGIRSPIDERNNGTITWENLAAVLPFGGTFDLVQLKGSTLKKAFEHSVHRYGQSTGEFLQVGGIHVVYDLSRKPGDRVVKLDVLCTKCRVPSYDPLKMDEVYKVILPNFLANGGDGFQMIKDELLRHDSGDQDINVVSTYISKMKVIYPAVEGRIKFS
The experiment can be described thus: Cell-free CD73 enzyme inhibition assay (BPS Bioscience kit, colorimetric free phosphate). It counts as biochemical. Particulars: AMP 100 μM, 25 min at 37° C. How it is done: (§1) The cell-free CD73 enzyme inhibition assay was performed in a 96-well plate format using the CD73 Inhibitor Screening Assay Kit in accordance with the manufacturer's instructions (BPS Bioscience cat no. 72055). […] Colorimetric detection reagent was then added (100 μL/well) and the free phosphate from the CD73 reaction was measured by reading the absorbance at 630 nm using the EnSpire multimode plate reader (PerkinElmer). Wells without test inhibitor (CD73 positive control) were included on each plate. Blank wells without test inhibitor and CD73 were subtracted from all wells. Percent CD73 inhibition (y-axis) versus log10 inhibitor concentration (x-axis) was plotted using GraphPad Prism Version 8 and IC50's calculated using nonlinear regression analysis (Sigmoidal, 4 PL).

In experiment [2] the target is T2, CD73 on EMT6 mouse mammary carcinoma cells (Mus musculus, UniProt Q61503).
T2 construct: host or cells: EMT6
T2 sequence (Q61503 29-551): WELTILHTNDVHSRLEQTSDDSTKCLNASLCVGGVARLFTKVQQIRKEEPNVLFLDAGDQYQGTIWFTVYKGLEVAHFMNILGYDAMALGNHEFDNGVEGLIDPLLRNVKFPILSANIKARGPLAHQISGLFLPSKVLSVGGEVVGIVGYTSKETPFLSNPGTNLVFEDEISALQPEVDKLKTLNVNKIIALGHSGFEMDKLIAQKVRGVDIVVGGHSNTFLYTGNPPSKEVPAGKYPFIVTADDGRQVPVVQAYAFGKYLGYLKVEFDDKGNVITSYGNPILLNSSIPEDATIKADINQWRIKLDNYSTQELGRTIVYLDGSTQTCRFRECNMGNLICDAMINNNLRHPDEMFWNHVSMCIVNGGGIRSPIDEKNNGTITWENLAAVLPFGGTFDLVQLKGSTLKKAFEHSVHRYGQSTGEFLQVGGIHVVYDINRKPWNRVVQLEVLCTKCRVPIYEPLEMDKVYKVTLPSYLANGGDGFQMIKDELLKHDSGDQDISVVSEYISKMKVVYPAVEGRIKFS
Description: CD73 enzyme inhibition assay with mouse EMT6 cells (PiColorLock). In kind it is cell-based. Particulars: mouse EMT6 cancer cells, AMP 100 μM. How it is done: The cell-based CD73 enzyme inhibition assay was performed in a 96-well plate format using the Phosphate Assay Kit—PiColorLock™ in accordance with the manufacturer's instructions (cat no. 270004, Abcam). AMP is enzymatically converted by CD73 to adenosine and phosphate. Therefore, adenosine concentrations can be inferred from phosphate concentrations in 1:1 ratio. Both EMT6 mouse mammary carcinoma cells (ATCC CRL-2755) and human peripheral blood mononuclear cells (PBMC; Stemcell Technologies cat no. 70025, lot no. 2202401007) were assayed. The EMT6 cells were washed three times with a phosphate free CD73 buffer, detached from flasks using a cell scraper, and seeded at 3×10^3 cells/well in 100 μL into 96-well tissue culture-treated plates. Human PBMC cells were washed three times by suspending in phosphate free CD73 buffer and pelleting in a centrifuge at 125×g for 10 min at room temperature and seeded at 5×10^5 cells/well in 100 μL into 96-well tissue culture-treated plates. […] AMP was added at 100 μM and cells, test articles, and AMP were incubated together for 3 h and 24 h at 37° C., 5% CO2. The CD73 activity in the supernatant was quantified using the PiColorLock Phosphate assay kit. Colorimetric detection reagent was added and the free phosphate from the CD73 reaction was measured by reading the absorbance at 635 nm using the EnSpire multimode plate reader (PerkinElmer). Wells without test inhibitor (CD73 positive control) were included on each plate. Wells without test inhibitor and cells (background) were subtracted from all wells. The percent CD73 inhibition versus inhibitor concentration was plotted using GraphPad Prism Version 8 and IC50's calculated using nonlinear regression analysis (Sigmoidal, 4 PL).

Experiment [3] has as its target T1, CD73. Description: Cell-free CD73 enzyme inhibition assay. In kind it is biochemical. Particulars: recombinant human CD73 0.1 ng/μL, AMP 100 μM, 25 min at 37° C. (FIG. 1A, 1B). How it is done:
as §1, with “(cat” for “(BPS Bioscience cat”, “72055, BPS Bioscience).” for “72055).”, “inhibition” for “inhibition (y-axis)”, “versus” for “versus log10”, “concentration” for “concentration (x-axis)”
as §1

“And” between values parts separate entries of the source, which are not always exact repeats. Equal values may be shown once. Read-outs that look alike come from different tables or passages of the source.

With `COC[C@](CO)(OC[C@H]1O[C@@H](n2ncc3c(NC4CCCC4)nc(Cl)nc32)[C@H](O)[C@@H]1O)P(=O)(O)O` [OP-5244], the IC50 on CD73 [1] was 3.8 nM and 3.79 nM; in experiment [2] (24 h, read-out: 24 h IC50) it was 0.51 nM; in experiment [2] (read-out: 3 h IC50, 3 h), 0.28 nM; at CD73 [3], 1.3 nM.
With `O=P(O)(O)COC[C@H]1O[C@@H](n2ncc3c(N4CC5(CCc6ccccc65)C4)nc(Cl)nc32)[C@H](O)[C@@H]1O` [SHR170008], the figures for the IC50 on CD73 [1] and on CD73 [3] were 12.9 nM and 4.1 nM, respectively.
Take `C[C@H](Nc1cc(Cl)nc2c1cnn2[C@@H]1O[C@H](COP(=O)(O)CP(=O)(O)O)[C@@H](O)[C@H]1O)c1ccccc1F` [AB680]: the IC50 in experiment [2] (3 h IC50 [nM], 3 h) is 1.06 nM; in experiment [2] (24 h, read-out: 24 h IC50) it was 2.29 nM.
